One series concerns the target T1, human MOP receptor (Homo sapiens, UniProt P35372).
T1 construct: expressed in transfected cells; host or cells: CHO (CHO-MOP, G418 selection)
The series is described as follows: cAMP assay in CHO-MOP cells (agonism). The format is cell-based. A general note: Cyclic AMP is a second messenger, typically raised through Gs and lowered through Gi signalling.

Another series deals with KOP receptor. Set-up: method as in PMID 22194444. The note with it: partial agonist; cited from earlier work.
Series [1] relates to untransfected Chinese hamster ovary (CHO-WT) cells. The series is described as follows: cAMP assay: inhibition of forskolin-stimulated cAMP in untransfected CHO cells. The format is cell-based. The note with it: 100 µM ligand, 1 µM forskolin.
Series [2] concerns the target T2, human DOP receptor (Homo sapiens, UniProt P41143).
T2 construct: expressed in transfected cells; host or cells: CHO (CHO-DOP, G418 selection)
Briefly: cAMP assay in CHO-DOP cells (agonism). The format is cell-based. Conditions: for Inhibition of forskolin-stimulated cAMP production: 100 µM ligand, CHO-DOP cells, reference DPDPE.

The target of a further series is DOP receptor. Conditions: cited from earlier work.
The test system of series [3] is Sprague Dawley rats. The series is described as follows: Observation of physiological or behavioural toxicity after subcutaneous administration. The note with it: for Physiological or behavioural toxicity: subcutaneous administration.
Another series has as its target NOP receptor. On the set-up: method as in PMID 22194444. Conditions: partial agonist; cited from earlier work.
Series [4] concerns Sprague Dawley rats. The series is described as follows: Hot plate antinociception assay. The note with it: repeated s.c. twice daily treatment; days 2, 5 and 8.
Series [5] concerns the target T2, human DOP receptor. Briefly: Antagonism of DPDPE effect in cAMP assay, CHO-DOP cells. The format is cell-based. As to the method: The antagonist effect of UTA1003 was calculated as described in previous studies. […] (Figure 3E, Table 1).
For a direct comparison between the UTA ligands, standard compounds, and for the concentration-response curves, the pharmacological effect was calculated as % of inhibition of forskolin-induced cAMP production, and the values were used for statistical analysis.

The next series can be described thus: Solubility (subjective). The note with it: detailed solubility experiments not performed. The format is physicochemical.
The test system of the next series is rat hippocampus. Set-up: method as in earlier work. Conditions: approximately five times lower dose; cited from earlier work.
The target of another series is T3, human KOP receptor (Homo sapiens, UniProt P41145).
T3 construct: expressed in transfected cells; host or cells: CHO (CHO-KOP, G418 selection)
The series is described as follows: cAMP assay in CHO-KOP cells (agonism). In kind it is cell-based.

A further series has as its target T4, human NOP receptor (Homo sapiens, UniProt P41146).
T4 construct: expressed in transfected cells; host or cells: CHO (CHO-NOP, G418 and hygromycin B selection)
Briefly: cAMP assay in CHO-NOP cells (agonism). In kind it is cell-based.

The test system of series [6] is Sprague Dawley rats. The series is described as follows: Open-field motor behaviour.

Here are results for 4 compounds from paper PMC9318816, “Differential Effects of a Novel Opioid Ligand UTA1003 on Antinociceptive Tolerance and Motor Behaviour” (Pharmaceuticals, 2022).

Read-outs that look alike come from different tables or passages of the source. Non-standard residues stand in square brackets, D forms with d. Residues, ends and D or L forms follow the SMILES beside them. *: point of attachment. Dmt = Cc1cc(O)cc(C)c1C[C@H](N)C(=O)O; Pip = O=C(O)[C@@H]1CCCCN1; NHBn = c1ccc(CN*)cc1

T1 sequence (P35372 whole entry): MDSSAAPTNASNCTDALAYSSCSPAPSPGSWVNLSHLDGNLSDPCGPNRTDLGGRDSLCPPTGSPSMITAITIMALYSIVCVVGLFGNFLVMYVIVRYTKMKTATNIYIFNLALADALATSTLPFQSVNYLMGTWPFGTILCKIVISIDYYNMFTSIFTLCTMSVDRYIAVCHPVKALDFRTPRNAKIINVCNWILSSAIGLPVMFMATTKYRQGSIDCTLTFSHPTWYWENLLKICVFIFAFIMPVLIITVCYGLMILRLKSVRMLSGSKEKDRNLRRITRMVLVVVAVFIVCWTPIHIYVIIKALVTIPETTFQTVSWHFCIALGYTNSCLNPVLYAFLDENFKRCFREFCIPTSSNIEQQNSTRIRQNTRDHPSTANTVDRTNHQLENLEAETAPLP
T3 sequence (P41145 whole entry): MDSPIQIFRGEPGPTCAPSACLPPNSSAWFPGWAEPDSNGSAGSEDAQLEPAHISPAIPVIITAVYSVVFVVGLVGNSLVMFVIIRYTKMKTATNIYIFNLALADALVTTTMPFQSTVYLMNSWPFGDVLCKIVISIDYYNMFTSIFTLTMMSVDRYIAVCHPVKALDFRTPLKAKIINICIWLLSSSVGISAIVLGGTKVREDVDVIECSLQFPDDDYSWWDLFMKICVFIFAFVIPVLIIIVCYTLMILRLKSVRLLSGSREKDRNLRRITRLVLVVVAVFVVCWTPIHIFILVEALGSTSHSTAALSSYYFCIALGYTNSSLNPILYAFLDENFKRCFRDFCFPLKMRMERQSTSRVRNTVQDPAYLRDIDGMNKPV
T2 sequence (P41143 whole entry): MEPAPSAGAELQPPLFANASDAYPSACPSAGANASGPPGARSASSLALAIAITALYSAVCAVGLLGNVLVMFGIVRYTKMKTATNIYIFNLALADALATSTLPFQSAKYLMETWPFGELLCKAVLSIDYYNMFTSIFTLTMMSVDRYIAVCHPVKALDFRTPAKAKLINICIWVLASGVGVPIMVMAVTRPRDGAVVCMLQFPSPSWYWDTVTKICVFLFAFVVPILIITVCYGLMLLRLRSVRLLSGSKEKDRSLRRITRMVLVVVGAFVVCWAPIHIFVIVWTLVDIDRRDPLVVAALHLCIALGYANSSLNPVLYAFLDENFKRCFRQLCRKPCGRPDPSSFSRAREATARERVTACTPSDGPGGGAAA
T4 sequence (P41146 whole entry): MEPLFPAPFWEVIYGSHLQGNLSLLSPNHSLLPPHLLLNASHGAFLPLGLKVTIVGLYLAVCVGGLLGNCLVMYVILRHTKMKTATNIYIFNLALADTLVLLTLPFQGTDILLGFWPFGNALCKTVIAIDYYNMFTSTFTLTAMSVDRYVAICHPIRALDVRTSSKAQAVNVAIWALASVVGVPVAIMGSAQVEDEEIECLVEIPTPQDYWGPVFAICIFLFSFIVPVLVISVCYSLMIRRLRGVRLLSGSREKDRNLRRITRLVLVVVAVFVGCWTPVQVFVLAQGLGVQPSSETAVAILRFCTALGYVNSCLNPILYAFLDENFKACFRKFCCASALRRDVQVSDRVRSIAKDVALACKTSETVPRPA

The term Emax denotes the greatest response seen or fitted, relative to the assay's reference. On to `C[C@@H](NC(=O)[C@@H](N)Cc1ccc(O)cc1)C(=O)NCC(=O)N(C)[C@@H](Cc1ccccc1)C(=O)NCCO` [DAMGO, reference compound], for which the Emax at human MOP receptor (CHO-MOP, inhibition of forskolin-stimulated cAMP, read-out: Emax (%)) turned out to be 88.8%.

As usually defined, the pKi is −log10 of the Ki, conventionally taken in molar units. Take H-Dmt-Tic-Gly-NH-Bzl [UFP-505]: the pKi on KOP receptor was 6.29; at NOP receptor, 5.86. The “Inhibition of forskolin-stimulated cAMP production” value in [1] is recorded as “not observed”; on human DOP receptor [2], “significantly lower specificity than DPDPE”. For the same compound, the “DOP receptor antagonism pKb” value is 9.81 on DOP receptor (ref 37) and 10.50 at DOP receptor (ref 60). Moreover, the “Physiological or behavioural toxicity” value in the series with Sprague Dawley rats [3] is “did not observe any physiological or behavioural toxicity”.

As to `CN1CC[C@]23c4c5ccc(O)c4O[C@H]2[C@@H](O)C=C[C@H]3[C@H]1C5` [morphine], the “Antinociception, morphine versus UTA1003/morphine at same day, hot plate” value in the series with Sprague Dawley rats [4] is recorded as “significantly lower than those of the UTA1003/morphine co-treatment on day 2”.

A word on the Kd: it is the equilibrium constant for the complex coming apart. A word on the EC50: it is the concentration that produces a half-maximal response. Higher therefore signals weaker potency. As for `Cc1cc(O)cc(C)c1C[C@H](N)C(=O)N1CCCC[C@H]1C(=O)NCC(=O)NCc1ccccc1` [UTA1003] (H-[Dmt]-[Pip]-Gly-NHBn), on human DOP receptor [5] (CHO-DOP, read-out: DOP receptor antagonism pKb (converted)), the Kb is 47.9 nM. Also, the dissociation constant Kd at human DOP receptor [5] (read-out: Antagonist Effect (Kd)) is 47.8 nM. Further, the maximum response (Emax) came out at 82.4% on human MOP receptor, 94.5% on human KOP receptor, 28.3% on human NOP receptor and 28.2% at human DOP receptor [2]. The EC50 was 6.89 nM at human MOP receptor (EC50, CHO-MOP, 1 µM forskolin); 6.92 nM at human MOP receptor (pEC50, CHO-MOP); 30.9 nM at human KOP receptor (EC50); 30.9 nM on human KOP receptor (pEC50); 1790 nM at human NOP receptor (EC50, CHO-NOP, 5 µM forskolin); 1780 nM on human NOP receptor (pEC50, CHO-NOP). In addition, the EC50 on human DOP receptor [2] (EC50, CHO-DOP, 1 µM forskolin) was 26.6 nM; on human DOP receptor [2] (pEC50, CHO-DOP), 26.3 nM. In addition, the “Solubility compared to UFP-505” value in “Solubility (subjective)” is “subjectively displayed better solubility”. For the same compound, the “Oxidative damage in the rat hippocampus” value in the series on rat hippocampus is given as “reduced oxidative damage in the rat hippocampus”. For the same compound, the results for the “Inhibition of forskolin-stimulated cAMP production” value (in series [1]; on human DOP receptor [2]) were “not observed” and “significantly lower specificity than DPDPE”, respectively. Also, in the series with Sprague Dawley rats [3] (repeated dosing), the Itching result was “absent”. For the same compound, in the series with Sprague Dawley rats [3], the “Physiological or behavioural toxicity” value was “did not observe any physiological or behavioural toxicity”. Moreover, the “Rearing time and rearing numbers, open field” value with Sprague Dawley rats [6] (acute s.c., 30 min post administration) is “slightly reduced rearing time and rearing numbers than vehicle”. In the series with Sprague Dawley rats [6] (acute s.c., 120 min observation), the “Total rotational activities, open field” value is given as “remained unaffected”. Also, the “Moving distance, open field” value with Sprague Dawley rats [6] (acute s.c., UTA1003 24.6 mg/kg) is reported as “unaffected”. Moreover, the “Moving time, open field” value in the series with Sprague Dawley rats [6] (acute s.c., UTA1003 24.6 mg/kg, 30 min post administration) is “significantly reduced moving time compared to the vehicle group”. Further, the “Motor behaviour after repeated treatment, open field” value with Sprague Dawley rats [6] (s.c. twice daily over 8 days, 30 min post administration) is “only a mild but significant suppression of motor activity on the first day”.
